# Marks after values point to notes of the source that are not given here.
# Key:
# LPS-treated mice [1] = assay: LPS-induced mortality with CB1 agonist/antagonist and HM; format: in vivo; conditions: given alone: HM 20, ACEA 2, AM-251 0.3 mg/kg; 2 weeks after bilateral intrastriatal LPS
# Protocol: Mortality was observed by 2 weeks after bilateral LPS intrastriatal injection (one side: 2 μg×2).
# MA-treated mice [2] = assay: MA-induced behavioural sensitization
# Protocol: Morphinans (20 mg/kg, i.p.) were administered last 3 days of wash-out period.
# LPS-treated mice [3] = assay: LPS model, HM versus L-dopa/carbidopa: locomotor activity; format: in vivo; conditions: 3 weeks after LPS
# Protocol: Locomotor activity was examined for 60 min at 3 weeks after LPS treatment. LPS-induced significant reduction (P<0.01 vs. saline treatment) in locomotor activity was attenuated by L-dopa (P<0.05), carbidopa+L-dopa (P<0.05) or HM (P<0.01) (FIGS. 24 and 25).
# MA-treated mice [4] = assay: MA-induced conditioned place preference with CB1 modulation
# Protocol: The control mice received an i.p. injection of saline just before entering the white or black compartment. Cocaine or MA dissolved in saline was administered immediately before the mice were placed in the white compartment. To test the effect of cocaine alone or MA alone or in combination with exemplified morphinans (DM, HM, AM, CM or DF), each morphinan was administered 2 hr before cocaine or saline injection.
# On day 1, the mice were pre-exposed to the test apparatus for 5 min. The guillotine doors were raised and the mice were allowed to move freely between the two compartments. On day 2, the time each mouse spent in each compartment was recorded for 15 min. On days 3, 5, 7, 9, 11, and 13, the mice were injected with cocaine before being confined to the white compartment, the non-preferred side, for 20 min. On days 4, 6, 8, 10, and 12, the mice were injected with saline before being confined to the black compartment, the preferred side, for 20 min. On day 14, the guillotine doors were raised. The mice were initially placed in the tunnel and the time spent by the mice in the two compartments was recorded for 15 min. The scores were calculated from the differences in the time spent in the white compartment in the testing and pre-testing phases.
# MA-treated mice [5] = assay: Nigral TH-IR in MA-treated mice; conditions: 24 mg/kg i.p.
# LPS-treated mice [6] = assay: LPS model, HM versus L-dopa/carbidopa: mortality; format: in vivo; conditions: intrastriatal LPS 2 μg x 4/head; 2 weeks
# Protocol: Mortality was observed by 2 weeks after LPS injection. *P<0.01 vs. Saline+LPS (x^2-test).
# The neuroprotective effect of HM was compared with L-dopa, carbidopa, or carbidopa plus L-dopa in response to dopaminergic damage induced by LPS. Intrastriatal injection of LPS (2 μg×4/head) produced high mortality (ten animals died out of twelve animals in the 2 weeks after LPS administration).
# MPTP-treated mice [7] = assay: MPTP model, HM versus L-dopa/carbidopa: locomotor activity; format: in vivo; conditions: HM 24 mg/kg i.p., L-dopa 200 mg/kg p.o., carbidopa 20 mg/kg p.o., 2 weeks before MPTP
# Protocol: FIGS. 20A-20B show effects of carbidopa, L-dopa, carbidopa+L-dopa and HM on the changes in locomotor activity (A) and locomotor pattern (B) induced by MPTP in mice.
# (§1) A prescription drug for treating Parkinsonian patients is L-dopa or carbidopa plus L-dopa. Thus, the neuroprotective effects of HM was compared with L-dopa, carbidopa, or carbidopa plus L-dopa. […] Locomotor activity was examined for 60 min after final treatment of MPTP. Mice were sacrificed at 24 h after final MPTP administration. HM (24 mg/kg, i.p.), L-dopa (200 mg/kg, p.o.) with or without carbidopa (20 mg/kg, p.o.) was administered for 2 weeks before first MPTP challenge.
# MA-treated mice [8] = assay: MA model, HM versus L-dopa/carbidopa: hyperthermia; format: in vivo; conditions: MA 7.5 mg/kg i.p. x 4
# Protocol: FIGS. 31A-31B show effect of drugs on the MA-induced hyperthermia. Mice received MA injections as 2 hrs' time interval under the ambient temperature of 22.0±0.5° C.
# Experimental paradigm for MA with or without compounds is in FIG. 30. Treatment with MA (7.5 mg/kg, i.p.×four times as two hour time interval) produces hyperthermia (P<0.01).
# cocaine-treated mice = assay: Cocaine-induced Fos-related antigen-immunoreactivity (FRA-IR) in the striatum; conditions: cocaine 5 mg/kg; morphinan 20 mg/kg i.p.
# [9] = system: kainate or maximal electric shock; conditions: kainate (24) or maximal electric shock (27); cited from earlier work
# LPS-treated mice [10] = assay: Hypokinesia induced by intrastriatal LPS; conditions: 12 or 24 mg/kg, twice before bilateral intrastriatal LPS
# MA-treated mice [11] = assay: Hypokinesia induced by MA; format: in vivo; conditions: 12 and 24 mg/kg; 3 days after final MA
# C57 BL/6 mice = assay: Locomotor activity and locomotor pattern following repeated administration of morphinans or PCP; format: in vivo
# MA-treated mice [12] = assay: MA model, HM versus L-dopa/carbidopa: locomotor activity; format: in vivo; conditions: 3 days after MA
# MPTP-treated mice [13] = assay: Nigral tyrosine hydroxylase-like immunoreactivity in MPTP-treated mice; conditions: 24 mg/kg i.p.
# Protocol: Each morphinan was administered 30 min prior to every injection of MPTP for last three days (from day 4th to day 7th). Animals were sacrificed 24 h after the last MPTP treatment.
# MA-treated mice [14] = assay: Striatal dopamine and metabolites in MA-treated mice; format: in vivo; conditions: for Concentration DA in the striatum: 3 days after final MA
# Description: Mice were sacrificed at 3 days after final MA injection.
# MPTP-treated mice [15] = assay: MPTP model, HM versus L-dopa/carbidopa: nigral TH-IR; format: in vivo; conditions: HM 24 mg/kg i.p., L-dopa 200 mg/kg p.o., carbidopa 20 mg/kg p.o.
# Protocol: FIGS. 21A-21G show effects of carbidopa, L-dopa, carbidopa+L-dopa and HM on the nigral tyrosine hydroxylase-like immunoreactivity (TH-IR) of the mice treated with MPTP. […] Magnification=40×.
# as §1
structure (smiles),measurement,setting,value
"Oc1ccc2c(c1)[C@@]13CCCC[C@H]1[C@@H](C2)NCC3 [HM, 3-hydroxymorphinan]",effect on LPS-induced mortality,LPS-treated mice [1],No animal died
same,behavioural effects of the compound itself,"MA-treated mice [2]; AM 251 0.3, ACEA 2, HM 20 mg/kg, no MA (Ex. 3.14)","Neither saline-, AM 251 (0.3 mg/kg)-, ACEA (2 mg/kg)-treated nor HM (20 mg/kg)-treated animals showed any behavioural effects"
same,effect on MA-induced behavioural sensitization (CB1 modulation study),"MA-treated mice [2]; MA 1 mg/kg i.p./day x 7, challenge one week later (Ex. 3.14)",significantly reduced
same,effect on LPS-induced reduction in locomotor activity,LPS-treated mice [3],attenuated
same,CPP response of the compound itself,"MA-treated mice [4]; AM 251 0.3, HM 20, ACEA 2 mg/kg i.p., no MA","Neither saline-, AM 251 (0.3 mg/kg, i.p.)-treated nor HM (20 mg/kg)-treated animals showed any CPP responses"
same,effect on MA-induced CPP,"MA-treated mice [4]; mouse, in vivo",significantly reduced the CPP produced by MA
same,effect on MA-induced decrease in nigral TH-positive cells,MA-treated mice [5],significantly attenuated the decrease in TH-positive cells
same,effect on mortality induced by LPS,LPS-treated mice [6],most pronounced
same,effect on MPTP-induced decrease in locomotor activity,MPTP-treated mice [7],significantly increased
same,effect on MA-induced hyperthermia,MA-treated mice [8],significantly attenenuated
same,effect on cocaine-induced FRA-IR in the striatum,cocaine-treated mice,apparently attenuated
same,anticonvulsant effect,[9],did not show any anticonvulsant effect
same,effect on LPS-induced decrease in locomotor activity,LPS-treated mice [10],significantly prevented LPS-induced decrease in locomotor activity
same,effect on MA-induced reduction in locomotor activity,MA-treated mice [11],appeared to be the most effective in preventing reduction in motor activity
same,locomotor pattern (tracings),"C57 BL/6 mice; 40 mg/kg i.p. (PCP 5 mg/kg), FIG. 3",did not produce significant marginal activity
same,marginal activity (circling behaviour; absolute turn angular),"C57 BL/6 mice; 20 or 40 mg/kg i.p./day x 7 (PCP 2.5 or 5 mg/kg), 3-min period, vs saline",did not significantly affect marginal activity
same,locomotor activity (total distance moved),"C57 BL/6 mice; 20 or 40 mg/kg i.p./day x 7 days, 30 min after final treatment, vs saline",comparable to that with saline
same,effect on MA-induced reduction in locomotor activity,MA-treated mice [12],more efficacious than that of L-dopa or carbidopa+L-dopa
same,effect on MPTP-induced decrease in nigral TH-positive cells,MPTP-treated mice [13],significantly attenuated the decrease in TH-positive cells
same,"effect on MA-induced reductions in striatal DA, DOPAC and HVA",MA-treated mice [14]; 24 mg/kg pretreatment,significantly protected
same,Concentration DOPAC in the striatum,MA-treated mice [14]; morphinan 12 (mg/kg) + MA,88 ± 10 ng/100 mg wet tissue
same,Concentration HVA in the striatum,MA-treated mice [14]; morphinan 12 (mg/kg) + MA,82 ± 8 ng/100 mg wet tissue
same,Concentration DA in the striatum,"MA-treated mice [14]; morphinan 12 (mg/kg) + MA, mean ± S.E.M., 8 animals",685 ± 64 ng/100 mg wet tissue
same,Concentration DOPAC in the striatum,MA-treated mice [14]; morphinan 24 (mg/kg) + MA,103 ± 9^d^ ng/100 mg wet tissue
same,Concentration HVA in the striatum,MA-treated mice [14]; morphinan 24 (mg/kg) + MA,100 ± 11^c ng/100 mg wet tissue
same,Concentration DA in the striatum,MA-treated mice [14]; morphinan 24 (mg/kg) + MA,864 ± 82^d ng/100 mg wet tissue
same,effect on MPTP-induced nigral loss in TH-IR,MPTP-treated mice [15],significantly attenuated
